Laboratory results taken from patent publication US20140315889A1, “HYDROXAMATE DERIVATIVES FOR HDAC INHIBITOR, AND THE PHARMACEUTICAL COMPOSITION COMPRISING THEREOF” (CHONG KUN DANG PHARMACEUTICAL CORP., priority 2011, published 2014).

Experiments:
Human recombinant HDAC1 = biological target: T1, Human recombinant HDAC1 (Homo sapiens, UniProt Q13547); assay: HDAC enzyme activity test, HDAC1; format: biochemical; conditions: Table 12; read-out: Inhibition ability (IC50) HDAC1
T1 construct: purchased Enzo Life Science Co. (named for the kit; assigned to the enzyme from the BML- catalogue prefix) BML-SE456
Experimental: (§1) Then, 0.3 μg of enzyme and 10 μM of substrate per well were added, reacted at 30° C. for 60 minutes. Thereto, Fluor de Lys® Developer II (BML-KI176) was added and reacted for 30 minutes. […] From the data, the respective IC50 were calculated by GraphPad Prism 4.0 program.

human recombinant HDAC6 = biological target: T2, human recombinant HDAC6 (Homo sapiens, UniProt Q9UBN7); assay: HDAC enzyme activity test, HDAC6; format: biochemical; conditions: Table 12; for Selectivity for HDAC6, HD1/HD6: ratio HDAC1 IC50 / HDAC6 IC50; for IC50: read-out: Inhibition ability (IC50) HDAC6
T2 construct: purchased Calibiochem Co. (so in the source) 382180
T2 sequence (Q9UBN7 1-1215): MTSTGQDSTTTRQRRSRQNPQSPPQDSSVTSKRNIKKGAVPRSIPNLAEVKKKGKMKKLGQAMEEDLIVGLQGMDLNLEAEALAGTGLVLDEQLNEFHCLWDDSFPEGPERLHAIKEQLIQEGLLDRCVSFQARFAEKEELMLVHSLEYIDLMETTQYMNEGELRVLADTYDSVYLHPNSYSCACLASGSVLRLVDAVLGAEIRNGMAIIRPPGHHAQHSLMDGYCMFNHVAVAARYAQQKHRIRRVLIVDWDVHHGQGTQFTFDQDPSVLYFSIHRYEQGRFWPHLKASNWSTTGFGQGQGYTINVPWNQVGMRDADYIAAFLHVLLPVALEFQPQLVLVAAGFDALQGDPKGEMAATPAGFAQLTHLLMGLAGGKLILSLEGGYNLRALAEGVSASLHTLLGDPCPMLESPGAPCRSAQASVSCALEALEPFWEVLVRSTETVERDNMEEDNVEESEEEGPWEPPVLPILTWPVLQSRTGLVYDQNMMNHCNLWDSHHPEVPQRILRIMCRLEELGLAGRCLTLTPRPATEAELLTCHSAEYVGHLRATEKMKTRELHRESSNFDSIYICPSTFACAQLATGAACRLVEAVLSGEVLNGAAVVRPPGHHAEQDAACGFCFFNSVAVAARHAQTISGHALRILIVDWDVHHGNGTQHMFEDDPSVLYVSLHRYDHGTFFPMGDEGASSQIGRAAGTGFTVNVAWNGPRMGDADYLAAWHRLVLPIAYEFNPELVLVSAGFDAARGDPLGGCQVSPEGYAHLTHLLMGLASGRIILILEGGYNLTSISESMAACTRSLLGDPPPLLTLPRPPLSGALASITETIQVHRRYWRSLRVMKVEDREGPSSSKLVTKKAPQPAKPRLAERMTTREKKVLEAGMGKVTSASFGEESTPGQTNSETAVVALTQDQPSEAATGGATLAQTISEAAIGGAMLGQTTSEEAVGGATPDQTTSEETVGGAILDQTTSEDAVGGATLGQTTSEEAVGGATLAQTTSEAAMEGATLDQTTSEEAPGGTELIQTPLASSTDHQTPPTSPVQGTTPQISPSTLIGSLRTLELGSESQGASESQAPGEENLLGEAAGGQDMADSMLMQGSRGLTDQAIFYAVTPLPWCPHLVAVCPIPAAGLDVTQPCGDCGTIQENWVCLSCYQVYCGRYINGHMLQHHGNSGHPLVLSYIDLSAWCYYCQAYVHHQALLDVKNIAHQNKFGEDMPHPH
Experimental: as §1

T1 sequence (Q13547 whole entry): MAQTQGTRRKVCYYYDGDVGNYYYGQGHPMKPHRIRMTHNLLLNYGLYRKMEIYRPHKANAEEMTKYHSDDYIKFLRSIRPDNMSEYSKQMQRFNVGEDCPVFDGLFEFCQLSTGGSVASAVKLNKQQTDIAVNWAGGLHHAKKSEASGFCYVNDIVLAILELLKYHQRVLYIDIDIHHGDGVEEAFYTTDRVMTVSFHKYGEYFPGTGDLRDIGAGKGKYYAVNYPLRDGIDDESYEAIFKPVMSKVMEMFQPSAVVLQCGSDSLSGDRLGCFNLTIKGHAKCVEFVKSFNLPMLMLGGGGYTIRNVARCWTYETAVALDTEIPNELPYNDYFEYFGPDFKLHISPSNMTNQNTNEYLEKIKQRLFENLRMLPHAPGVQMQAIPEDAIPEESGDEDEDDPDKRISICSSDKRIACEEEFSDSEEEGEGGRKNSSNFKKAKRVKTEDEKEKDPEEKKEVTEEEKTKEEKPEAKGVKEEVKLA

| SMILES | IC50 (Human recombinant HDAC1) | Selectivity for HDAC6, HD1/HD6 (human recombinant HDAC6) | IC50 (human recombinant HDAC6) |
| --- | --- | --- | --- |
| O=C(NO)c1ccc(Cn2c3c(c4ccccc42)C(=O)C(CN2CCN(C(=O)C4CC4)CC2)CC3)cc1 (stereo not drawn) [Compound 156, 4-((3-((4-(cyclopropancarbonyl)piperazin-1-yl)methyl)-4-oxo-1,2,3,4-tetrahydrocarbazol-9-yl)methyl)-N-hydroxybenzamide] | 6400 nM | 424.8 | 15.1 nM |
| O=C(NO)c1ccc(Cn2c3c(c4cc(F)ccc42)C(=O)CCC3)cc1 [Compound 157, 4-((3-fluoro-5-oxo-5,6,7,8-tetrahydrocarbazol-9-yl)methyl)-N-hydroxybenzamide] | 3610 nM | 326.2 | 11.1 nM |
| Cc1nccn1CC1CCc2c(c3cc(F)ccc3n2Cc2ccc(C(=O)NO)cc2)C1=O (stereo not drawn) [Compound 158, 4-((6-fluoro-3-((2-methyl-1H-imidazol-1-yl)methyl)-4-oxo-1,2,3,4-tetrahydrocarbazol-9-yl)methyl)-N-hydroxybenzamide] | 5140 nM | 602.7 | 8.52 nM |
| O=C(NO)c1ccc(Cn2c3ccccc3c3c(=O)[nH]cnc32)cc1 [Compound 179, N-hydroxy-4-((4-oxo-3,4-dihydropyrimido[4,5-b]indol-9-yl)methyl)benzamide] | 154 nM | 43.693 | 3.52 nM |
| CC(C)N1CCN(CC2CCc3c(c4cc(F)ccc4n3Cc3ccc(C(=O)NO)cc3)C2=O)CC1 (stereo not drawn) [Compound 188, 4-((6-fluoro-3-((4-isopropylpiperazin-1-yl)methyl)-4-oxo-1,2,3,4-tetrahydrocarbazol-9-yl)methyl)-N-hydroxybenzamide] | 2260 nM | 49.9 | 45.3 nM |
| CCN1CCN(CC2CCc3c(c4cc(F)ccc4n3Cc3ccc(C(=O)NO)cc3)C2=O)CC1 (stereo not drawn) [Compound 189, 4-((3-((4-ethylpiperazin-1-yl)methyl)-6-fluoro-4-oxo-1,2,3,4-tetrahydrocarbazol-9-yl)methyl)-N-hydroxybenzamide] | 2230 nM | 193.5 | 11.5 nM |
| CCCCN1CCN(CC2CCc3c(c4cc(F)ccc4n3Cc3ccc(C(=O)NO)cc3)C2=O)CC1 (stereo not drawn) [Compound 190, 4-((3-((4-butylpiperazin-1-yl)methyl)-6-fluoro-4-oxo-1,2,3,4-tetrahydrocarbazol-9-yl)methyl)-N-hydroxybenzamide] | 2250 nM | 385.1 | 5.8 nM |
| CC(C)(O)CN1CCN(CC2CCc3c(c4cc(F)ccc4n3Cc3ccc(C(=O)NO)cc3)C2=O)CC1 (stereo not drawn) [Compound 191, 4-((6-fluoro-3-((4-(2-hydroxy-2-methylpropyl)piperazin-1-yl)methyl)-4-oxo-1,2,3,4-tetrahydrocarbazol-9-yl)methyl)-N-hydroxybenzamide] | 8280 nM | 1115.6 | 7.4 nM |
| Cc1nccn1CC1C(=O)c2c(n(Cc3ccc(C(=O)NO)cc3)c3ccc(F)cc23)CC1(C)C (stereo not drawn) [Compound 192, 4-((6-fluoro-2,2-dimethyl-3-((2-methyl-1H-imidazol-1-yl)methyl)-4-oxo-1,2,3,4-tetrahydrocarbazol-9-yl)methyl)-N-hydroxybenzamide] | 4610 nM | 2546.4 | 1.8 nM |
| O=C(CCCCCn1c2c(c3ccccc31)C(=O)C(CN1CCOCC1)CC2)NO (stereo not drawn) [Compound 193, N-hydroxy-6-(3-(morpholinomethyl)-4-oxo-1,2,3,4-tetrahydrocarbazol-9-yl)hexanamide] | 3500 nM | 464.3 | 7.5 nM |
| Cc1nccn1CC1CCc2c(c3ccccc3n2CCCCCC(=O)NO)C1=O (stereo not drawn) [Compound 194, N-hydroxy-6-(3-((2-methyl-1H-imidazol-1-yl)methyl)-4-oxo-1,2,3,4-tetrahydrocarbazol-9-yl)hexanamide] | 3080 nM | 131.3 | 23.5 nM |
